Assay: mn = molality of the nth substance listed, in mol/kg
Settings: 100 kPa, Liquid, Alternating current cell with electrodes

CC(=O)N(C)C [N,N-dimethylethanamide] + CCCCn1cc[n+](C)c1.F[B-](F)(F)F
electrical conductivity [S/m]
Settings	283.15 K	288.15 K	293.15 K	298.15 K	303.15 K	308.15 K	313.15 K	318.15 K
m2 = 0.0003956	0.0021612	0.0023283	0.0025019	0.0026803	0.0028647	0.0030385	0.00322	0.0034051
m2 = 0.000671	0.0036275	0.0039047	0.004196	0.0044945	0.0047984	0.0050953	0.0053975	0.0057039
m2 = 0.0009718	0.0051999	0.0056027	0.0060224	0.0064451	0.0068768	0.0073024	0.0077338	0.0081707
m2 = 0.001959	0.010227	0.011022	0.011831	0.012666	0.013508	0.014339	0.015175	0.01603
m2 = 0.002976	0.01525	0.016416	0.017623	0.018852	0.020112	0.021302	0.022571	0.023828
m2 = 0.003778	0.019105	0.020563	0.022088	0.023628	0.025189	0.026664	0.028258	0.029817
m2 = 0.005993	0.02947	0.03171	0.034016	0.036401	0.038756	0.041015	0.043439	0.045784
m2 = 0.007976	0.03841	0.041353	0.044368	0.047396	0.050472	0.053564	0.056503	0.059519
m2 = 0.009999	0.047279	0.050928	0.054557	0.058325	0.062033	0.065747	0.069408	0.073087
m2 = 0.01203	0.055972	0.060177	0.064588	0.069017	0.073419	0.077654	0.082086	0.086346
m2 = 0.01408	0.064541	0.069536	0.074489	0.079576	0.084557	0.089517	0.094529	0.099432
m2 = 0.01598	0.072339	0.07784	0.083519	0.089184	0.094781	0.10031	0.10588	0.1113

CCn1cc[n+](C)c1.F[B-](F)(F)F [1-ethyl-3-methylimidazolium tetrafluoroborate] + CC(=O)N(C)C
electrical conductivity [S/m]
Settings	283.15 K	288.15 K	293.15 K	298.15 K	303.15 K	308.15 K	313.15 K	318.15 K
m1 = 0.0005629	0.0031908	0.0034405	0.0036939	0.0039526	0.0042191	0.004484	0.0047434	0.0050185
m1 = 0.0006895	0.0038906	0.004193	0.0045017	0.0048205	0.0051443	0.0054656	0.0057804	0.0061132
m1 = 0.000982	0.0054941	0.0059172	0.0063518	0.0067988	0.0072509	0.0077078	0.0081485	0.0086157
m1 = 0.001939	0.010589	0.011412	0.012243	0.013099	0.013967	0.014834	0.015676	0.016565
m1 = 0.002956	0.015824	0.017057	0.018294	0.019571	0.020868	0.022135	0.023398	0.024707
m1 = 0.004046	0.021327	0.022927	0.024608	0.026319	0.028044	0.029762	0.031425	0.033169
m1 = 0.005688	0.029289	0.031559	0.033817	0.036147	0.038528	0.040878	0.043126	0.045508
m1 = 0.007809	0.039246	0.042233	0.045277	0.048414	0.051576	0.054665	0.057654	0.060821
m1 = 0.009857	0.048544	0.052266	0.056056	0.059913	0.063775	0.067588	0.071261	0.075126
m1 = 0.01192	0.057623	0.062014	0.06648	0.071	0.075636	0.08016	0.08449	0.089017
m1 = 0.01392	0.066221	0.071259	0.076376	0.081634	0.08688	0.09207	0.097012	0.10224
m1 = 0.01584	0.074143	0.079848	0.085601	0.091493	0.097323	0.10312	0.10873	0.11459

Reference: the NIST ThermoML archive (doi:10.1021/acs.jced.6b00354)
